Converted amounts (≈) assume the structure as drawn. Read-outs that look alike come from different tables or passages of the source.
Experiments:
[1] = test system: Sphaerotheca fuliginea (S. fuliginea); assay: Greenhouse fungicidal activity, potted cucumber, powdery mildew; format: in vivo; conditions: Podosphaera fuliginea
Description: (§1) For a further validation, the controlling efficacy of compound 18 against downy mildew and powdery mildew disease was tested in greenhouse and field models.
(§2) The fungicidal activity of compound 18 against P. cubensis and S. fuliginea was evaluated according to a previously published method[30] and a potted-plant test method was adopted. […]
(§3) Greenhouse Fungicidal Activity
(§4) The fungicidal activity of compound 18 against P. cubensis and S. fuliginea was evaluated according to a previously published method 17 and a potted-plant test method was adopted. Commercial fungicide AZ was evaluated as a control under the same conditions.
(§5) Cucumber seeds were soaked in water for 2 h at 50℃ and then were kept moist for 24 h at 28℃ in an incubator. When the radicles grew to 0.5 cm, the seeds were grown in plastic pots containing a 1:1 (v/v) mixture of vermiculite and peat. At the stage of two leaves, all of the cucumber plants used for inoculations were divided into two groups to test for protective and curative effects. In the protective action, compound 18 and commercial fungicide AZ were sprayed on the leaves before the inoculation. However, the fungal inoculation and chemical spraying are reverse in the […] action.
(§6) In the protective action, compound 18 and commercial fungicide AZ were sprayed with a hand spray on the surface of the seed leaves at concentrations of 200, 100, 50, 25, 12.5, 6.25, 3.125, 1.5625 mg/L. After 2 h, inoculations of P. cubensis and S. fuliginea were carried out by spraying a conidial suspension (concentration […]), which was repeated 4 times.
(§7) After inoculation, the cucumber seedlings were cultured in a culture room at 25±2℃, 70%~80% relative humidity, and 16L:8D photoperiod for 8 d. In the curative action, the fungal inoculation and chemical spraying were reversed with the protective action. Foliar spray with fungicides to inoculated cucumber plants (before disease expression) till near-run-oﬀ was made on the 7th and 15th day after emergence. The fungicidal activity was evaluated when the nontreated cucumber plant fully developed symptoms. The area of inoculated and treated leaves covered by disease symptoms was assessed and compared to that of nontreated ones to determine the average disease index.
(§8) The disease range (i) was visually evaluated on the […]rst true leaf and ranked as a percentage infected area using a rating of 0, 1, 3, 5, 7, or 9, denoting proportions of disease over the whole leaf area of 0%, < 5%, 6–10%, 11–25%, 26–50%, and > 50%, respectively 18.
(§9) The disease index and control effect of compound 18 were calculated via the following […]
(§10) Disease index (%) = ∑(Ni × i)/(N × 9) × 100 […]

[2] = test system: Pseudoperonospora cubensis (P. cubensis); assay: Greenhouse fungicidal activity, potted cucumber, downy mildew; format: in vivo
Description: as §1, §2, §3, §4, §5, §6, §7, §8, §9, §10

SMILES	EC90 ([1]; greenhouse, cucumber, sprayed after inoculation, read-out: curative EC90 against S. fuliginea)	EC90 ([1]; greenhouse, cucumber, sprayed before inoculation, read-out: protective EC90 against S. fuliginea)	EC90 ([2]; greenhouse, cucumber, sprayed after inoculation, read-out: curative EC90 against P. cubensis)	EC90 ([2]; greenhouse, cucumber, sprayed before inoculation, read-out: protective EC90 against P. cubensis)	EC90 ([1]; read-out: curative EC90 against S. fuliginea)	EC90 ([1]; read-out: protective EC90 against S. fuliginea)	EC90 ([2]; read-out: curative EC90 against P. cubensis)	EC90 ([2]; read-out: protective EC90 against P. cubensis)
CO/C=C(/C(=O)OC)c1ccccc1Oc1cc(Oc2ccccc2C#N)ncn1 [AZ, Azoxystrobin, reference compound]	> 500 µg/mL	254 µg/mL (≈ 630 µM)	50.7 µg/mL (≈ 126 µM)	5.36 µg/mL (≈ 13.3 µM)				
COC=C(C(=O)OC)c1ccccc1CSc1nc2cc(OC)ccc2s1 [Compound 18]					32.9 µg/mL (≈ 81.9 µM)	1.89 µg/mL (≈ 4.71 µM)	120 µg/mL (≈ 300 µM)	4.29 µg/mL (≈ 10.7 µM)
